From publication PMC12598616, “Design and optimization of caspase-1-responsive fluorescent probes for pyroptosis imaging and anti-pyroptosis drug screening” (Chemical Science, 2025)

Columns and labels:
[1] = system: Cas-1; experiment: Fluorescence detection after co-incubation of deoxyshikonin, FPy1 and Cas-1; type: biochemical, human
Description: The efficient and rapid discovery of Cas-1 modulators is of significant importance considering the therapeutic potential of Cas-1 in various diseases.[39,40] Therefore, we employed FPy1 to construct a high-content screening system aimed at identifying Cas-1 modulators. The level of activated Cas-1 in cells is influenced by multiple factors. To reduce the impact of factors that affect Cas-1 activation in cells, we utilized the NLRP3 inflammasome-mediated Cas-1 activation model, administering the drug during the second stage where the zymogen was converted into activated Cas-1. MCC950, a selective NLRP3 inflammasome inhibitor that could suppress Cas-1 activation, was selected as the positive drug.[41] […] To validate the efficacy of the Cas-1 modulator screening system (Fig. 6a), we first observed the fluorescence images of PMs stained with FPy1 (5 μM) in the control group, model group, and positive drug group. […] Subsequently, the impact of 25 natural products (10 μM) on activated Cas-1 were studied using high-content analysis (Fig. S20). […] To determine whether deoxyshikonin directly binds to Cas-1 and inhibits its activity, we conducted fluorescence detection following co-incubation of deoxyshikonin, FPy1 and Cas-1. […] Overall, FPy1 could serve as an effective tool for the rapid identification of lead compounds that modulate Cas-1 activity within a high-content analysis platform. […]

[2] = system: activated Cas-1 in primary peritoneal macrophages; experiment: High-content screening / fluorescence imaging for caspase-1 modulators in primary peritoneal macrophages; type: cell-based, mouse; conditions: natural product 10 μM with Nig 10 μM 2 h after LPS 4 h; FPy1 5 μM
Description: The efficient and rapid discovery of Cas-1 modulators is of significant importance considering the therapeutic potential of Cas-1 in various diseases.[39,40] Therefore, we employed FPy1 to construct a high-content screening system aimed at identifying Cas-1 modulators. The level of activated Cas-1 in cells is influenced by multiple factors. To reduce the impact of factors that affect Cas-1 activation in cells, we utilized the NLRP3 inflammasome-mediated Cas-1 activation model, administering the drug during the second stage where the zymogen was converted into activated Cas-1. MCC950, a selective NLRP3 inflammasome inhibitor that could suppress Cas-1 activation, was selected as the positive drug.[41] […] To validate the efficacy of the Cas-1 modulator screening system (Fig. 6a), we first observed the fluorescence images of PMs stained with FPy1 (5 μM) in the control group, model group, and positive drug group. […] Subsequently, the impact of 25 natural products (10 μM) on activated Cas-1 were studied using high-content analysis (Fig. S20). […] To determine whether deoxyshikonin directly binds to Cas-1 and inhibits its activity, we conducted fluorescence detection following co-incubation of deoxyshikonin, FPy1 and Cas-1. […]
Harvested rat discs were fixed in 4 % buffered paraformaldehyde for 24 hours, decalcified in 10 % ethylenediaminetetraacetic acid (EDTA, Solarbio, E8030) solution for 1 month, embedded in paraffin, and sectioned at a thickness of 5 μm. […] Stained sections were evaluated by three independent raters, blinded to the research protocol, and measurements were averaged for statistical analysis. […]
In vivo fluorescence imaging of intervertebral disc degeneration
Twelve rats were modeled with needle puncture-induced intervertebral disc degeneration at the Co5/6, Co6/7 and Co 7/8 levels. […] In vivo fluorescence images were acquired using an in vivo Imaging System (PerkinElmer). […]
In vivo fluorescence imaging of osteoarthritis […]

[3] = system: cleaved Cas-1; experiment: Western blot of cleaved Cas-1; type: cell-based; conditions: control and treated groups

## CC(C)=CCCC1=CC(=O)c2c(O)ccc(O)c2C1=O [deoxyshikonin]
[1]
  fluorescence at 585 nm in presence of compound (direct Cas-1 inhibition): the fluorescence at 585 nm was lower in the presence of deoxyshikonin
[2]
  fluorescence intensity of FPy1 relative to model group, high-content analysis: significant reduction in fluorescence intensity compared to the model group
[3]
  activated Cas-1 level (Western blot): significantly inhibit the activation of Cas-1, reducing activated Cas-1 levels
